Measured values as given in the kinase profiling compilation of Christmann-Franck et al. (2016).

Tests used:
Test in all cases: KINOMEscan competition binding
Conditions in all cases: compound 10.0 µM
[1] = tested on: ABL1 (human), P00519 [M351T]
[2] = tested on: PIK3CA (human), P42336 [H1047Y]
[3] = tested on: FLT3 (human), P36888 [ITD]
[4] = tested on: EGFR (human), P00533 [746-750 del]
[5] = tested on: EGFR (human), P00533 [P753S; 747-752 del]
[6] = tested on: PIK3CA (human), P42336 [C420R]
[7] = tested on: PIK3CA (human), P42336 [Q546K]
Sequence of PIK3CA (human), P42336 [Q546K] (P42336 whole entry Q546K, looked up): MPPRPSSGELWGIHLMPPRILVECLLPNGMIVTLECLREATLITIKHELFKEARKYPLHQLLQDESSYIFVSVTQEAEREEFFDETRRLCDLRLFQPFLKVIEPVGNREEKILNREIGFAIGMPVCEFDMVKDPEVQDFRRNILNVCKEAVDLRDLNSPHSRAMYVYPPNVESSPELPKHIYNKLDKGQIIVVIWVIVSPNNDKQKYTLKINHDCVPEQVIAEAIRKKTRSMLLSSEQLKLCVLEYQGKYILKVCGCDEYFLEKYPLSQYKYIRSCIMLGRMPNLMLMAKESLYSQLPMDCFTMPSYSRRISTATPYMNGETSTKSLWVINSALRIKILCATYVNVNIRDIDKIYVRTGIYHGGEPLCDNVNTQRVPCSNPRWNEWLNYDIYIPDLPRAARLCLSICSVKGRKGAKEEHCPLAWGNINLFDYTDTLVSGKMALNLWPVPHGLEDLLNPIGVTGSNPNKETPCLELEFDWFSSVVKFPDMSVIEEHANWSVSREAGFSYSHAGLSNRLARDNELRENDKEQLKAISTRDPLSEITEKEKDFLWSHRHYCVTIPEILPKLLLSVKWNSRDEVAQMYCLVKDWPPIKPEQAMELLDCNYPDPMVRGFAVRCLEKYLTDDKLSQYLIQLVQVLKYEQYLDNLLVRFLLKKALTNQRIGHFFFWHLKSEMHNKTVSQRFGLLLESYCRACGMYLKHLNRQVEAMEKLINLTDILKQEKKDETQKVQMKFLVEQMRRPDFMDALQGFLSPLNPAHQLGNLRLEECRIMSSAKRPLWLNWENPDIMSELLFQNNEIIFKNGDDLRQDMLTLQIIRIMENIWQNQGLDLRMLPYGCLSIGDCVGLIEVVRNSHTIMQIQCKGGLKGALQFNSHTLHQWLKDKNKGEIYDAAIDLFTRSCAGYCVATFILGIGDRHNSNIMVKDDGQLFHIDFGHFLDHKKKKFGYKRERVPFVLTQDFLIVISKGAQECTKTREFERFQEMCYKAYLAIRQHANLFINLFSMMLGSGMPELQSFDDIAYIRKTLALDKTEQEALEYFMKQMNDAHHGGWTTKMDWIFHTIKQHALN

[8] = tested on: KIT (human), P10721 [V559D/T670I]
Sequence of KIT (human), P10721 [V559D/T670I] (P10721 whole entry V559D/T670I, looked up): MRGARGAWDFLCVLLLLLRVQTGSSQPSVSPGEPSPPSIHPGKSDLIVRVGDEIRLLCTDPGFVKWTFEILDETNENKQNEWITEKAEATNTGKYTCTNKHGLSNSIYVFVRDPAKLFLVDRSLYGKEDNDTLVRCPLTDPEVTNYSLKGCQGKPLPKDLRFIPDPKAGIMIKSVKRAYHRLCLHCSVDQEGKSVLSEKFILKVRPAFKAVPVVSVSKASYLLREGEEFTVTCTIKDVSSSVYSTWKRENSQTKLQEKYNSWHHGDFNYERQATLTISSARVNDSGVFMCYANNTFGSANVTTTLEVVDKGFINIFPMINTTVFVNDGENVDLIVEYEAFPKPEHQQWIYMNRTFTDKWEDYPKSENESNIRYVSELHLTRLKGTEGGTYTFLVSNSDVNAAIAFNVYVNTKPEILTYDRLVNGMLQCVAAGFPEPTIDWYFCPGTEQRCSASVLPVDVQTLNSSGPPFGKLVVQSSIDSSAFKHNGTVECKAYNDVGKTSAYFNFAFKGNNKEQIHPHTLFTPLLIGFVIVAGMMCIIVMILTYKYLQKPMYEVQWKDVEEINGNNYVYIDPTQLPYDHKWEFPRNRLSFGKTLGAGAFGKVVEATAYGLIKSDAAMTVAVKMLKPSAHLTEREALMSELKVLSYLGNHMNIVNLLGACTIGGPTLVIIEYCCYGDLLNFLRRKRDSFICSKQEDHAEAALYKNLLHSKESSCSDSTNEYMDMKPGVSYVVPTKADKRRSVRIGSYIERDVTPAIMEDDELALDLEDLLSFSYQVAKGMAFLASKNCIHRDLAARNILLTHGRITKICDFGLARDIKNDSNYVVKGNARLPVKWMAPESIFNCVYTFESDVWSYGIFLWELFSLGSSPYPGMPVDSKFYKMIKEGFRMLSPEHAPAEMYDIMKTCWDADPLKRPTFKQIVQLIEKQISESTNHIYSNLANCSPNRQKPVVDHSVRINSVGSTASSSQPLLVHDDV

[9] = tested on: KIT (human), P10721 [V559D]
Sequence of KIT (human), P10721 [V559D] (P10721 whole entry V559D, looked up): as the sequence (P10721 whole entry V559D/T670I, looked up) above, with I670T counted along it

[10] = tested on: EIF2AK4 KD2 (human), Q9P2K8 [S808G]
Sequence of EIF2AK4 KD2 (human), Q9P2K8 [S808G] (Q9P2K8 whole entry S808G, looked up): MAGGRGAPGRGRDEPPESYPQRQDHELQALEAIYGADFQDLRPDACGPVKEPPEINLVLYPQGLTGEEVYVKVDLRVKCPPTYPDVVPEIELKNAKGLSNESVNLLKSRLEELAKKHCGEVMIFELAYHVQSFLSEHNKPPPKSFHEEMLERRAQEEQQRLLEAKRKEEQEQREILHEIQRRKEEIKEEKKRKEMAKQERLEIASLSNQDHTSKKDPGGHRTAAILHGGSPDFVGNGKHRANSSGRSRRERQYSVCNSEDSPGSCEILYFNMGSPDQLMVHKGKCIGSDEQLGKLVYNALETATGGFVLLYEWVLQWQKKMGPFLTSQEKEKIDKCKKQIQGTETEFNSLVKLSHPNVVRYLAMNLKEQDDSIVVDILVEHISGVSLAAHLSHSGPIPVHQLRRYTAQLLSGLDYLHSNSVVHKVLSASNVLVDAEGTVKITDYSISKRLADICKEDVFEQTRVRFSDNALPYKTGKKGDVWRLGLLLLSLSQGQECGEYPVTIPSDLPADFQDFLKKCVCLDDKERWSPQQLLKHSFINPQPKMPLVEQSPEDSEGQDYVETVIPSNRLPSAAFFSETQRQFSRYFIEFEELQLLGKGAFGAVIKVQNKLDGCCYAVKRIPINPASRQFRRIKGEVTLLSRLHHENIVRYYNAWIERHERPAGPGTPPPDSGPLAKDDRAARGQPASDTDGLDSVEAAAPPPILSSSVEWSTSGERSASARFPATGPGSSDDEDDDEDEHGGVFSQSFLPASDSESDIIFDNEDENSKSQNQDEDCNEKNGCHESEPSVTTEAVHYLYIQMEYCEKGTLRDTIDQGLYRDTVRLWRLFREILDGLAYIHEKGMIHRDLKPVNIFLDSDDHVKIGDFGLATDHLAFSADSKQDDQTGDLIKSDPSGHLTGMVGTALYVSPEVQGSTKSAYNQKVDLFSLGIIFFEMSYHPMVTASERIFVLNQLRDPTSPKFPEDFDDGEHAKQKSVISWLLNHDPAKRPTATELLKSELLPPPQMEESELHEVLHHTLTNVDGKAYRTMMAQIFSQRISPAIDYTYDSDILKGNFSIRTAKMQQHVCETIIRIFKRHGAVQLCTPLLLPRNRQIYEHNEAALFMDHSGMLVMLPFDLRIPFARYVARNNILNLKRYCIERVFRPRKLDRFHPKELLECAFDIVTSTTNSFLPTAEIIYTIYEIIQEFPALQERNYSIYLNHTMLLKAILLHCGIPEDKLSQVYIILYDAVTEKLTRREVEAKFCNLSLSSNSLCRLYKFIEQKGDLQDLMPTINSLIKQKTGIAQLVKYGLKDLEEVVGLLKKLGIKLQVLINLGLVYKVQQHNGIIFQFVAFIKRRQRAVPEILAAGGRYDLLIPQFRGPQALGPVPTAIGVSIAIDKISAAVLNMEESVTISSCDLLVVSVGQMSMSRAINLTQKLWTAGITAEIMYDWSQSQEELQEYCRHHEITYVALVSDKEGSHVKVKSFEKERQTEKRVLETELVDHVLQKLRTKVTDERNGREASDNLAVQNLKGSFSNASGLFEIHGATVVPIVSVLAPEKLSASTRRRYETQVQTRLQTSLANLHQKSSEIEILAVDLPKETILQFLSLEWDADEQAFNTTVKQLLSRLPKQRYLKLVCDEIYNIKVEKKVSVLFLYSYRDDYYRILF

[11] = tested on: PIK3CA (human), P42336 [I800L]
Sequence of PIK3CA (human), P42336 [I800L] (P42336 whole entry I800L, looked up): as the sequence (P42336 whole entry Q546K, looked up) above, with K546Q, I800L counted along it

[12] = tested on: EGFR (human), P00533 [G719S]
[13] = tested on: KIT (human), P10721 [D816V]
Sequence of KIT (human), P10721 [D816V] (P10721 whole entry D816V, looked up): as the sequence (P10721 whole entry V559D/T670I, looked up) above, with D559V, I670T, D816V counted along it

[14] = tested on: PIK3CA (human), P42336 [E545A]
Sequence of PIK3CA (human), P42336 [E545A] (P42336 whole entry E545A, looked up): as the sequence (P42336 whole entry Q546K, looked up) above, with E545A, K546Q counted along it

[15] = tested on: FLT3 (human), P36888 [N841I]
[16] = tested on: PIK3CA (human), P42336 [E545K]
Sequence of PIK3CA (human), P42336 [E545K] (P42336 whole entry E545K, looked up): as the sequence (P42336 whole entry Q546K, looked up) above, with E545K, K546Q counted along it

[17] = tested on: EGFR (human), P00533 [L861Q]
[18] = tested on: FLT3 (human), P36888 [K663Q]
[19] = tested on: ABL1 (human), P00519 [E255K]

Sequence of PIK3CA (human), P42336 [C420R] (P42336 whole entry C420R, looked up): as the sequence (P42336 whole entry Q546K, looked up) above, with C420R, K546Q counted along it
Sequence of PIK3CA (human), P42336 [H1047Y] (P42336 whole entry H1047Y, looked up): as the sequence (P42336 whole entry Q546K, looked up) above, with K546Q, H1047Y counted along it

| SMILES | kinase still bound, per cent of control [1] | kinase still bound, per cent of control [2] | kinase still bound, per cent of control [3] | kinase still bound, per cent of control [4] | kinase still bound, per cent of control [5] | kinase still bound, per cent of control [6] | kinase still bound, per cent of control [7] | kinase still bound, per cent of control [8] | kinase still bound, per cent of control [9] | kinase still bound, per cent of control [10] | kinase still bound, per cent of control [11] | kinase still bound, per cent of control [12] | kinase still bound, per cent of control [13] | kinase still bound, per cent of control [14] | kinase still bound, per cent of control [15] | kinase still bound, per cent of control [16] | kinase still bound, per cent of control [17] | kinase still bound, per cent of control [18] | kinase still bound, per cent of control [19] |
| --- | --- | --- | --- | --- | --- | --- | --- | --- | --- | --- | --- | --- | --- | --- | --- | --- | --- | --- | --- |
| C=CC(=O)Nc1cc(-n2c(=O)ccc3cnc4ccc(-c5cn[nH]c5)cc4c32)ccc1C | 64% | 13% | 2.4% | 58% | 53% | 18% | 21% | 96% | 66% | 100% | 0.45% | 79% | 5.8% | 23% | 1.6% | 21% | 22% | 18% | 39% |
| O=C1NC(=O)/C(=C/c2ccc3nccc(-c4ccncc4)c3c2)S1 | 56% | 0.9% | 47% | 81% | 74% | 0.4% | 1.3% | 76% | 30% | 7.4% | 12% | 78% | 63% | 0.1% | 39% | 0.75% | 87% | 37% | 71% |
| CC1=C(C(=O)Nc2cc3cn[nH]c3cc2F)C(c2ccc(C(F)(F)F)cc2)CC(=O)N1 (stereo not given) | 82% | 43% | 83% | 96% | 100% | 63% | 32% | 88% | 82% | 100% | 100% | 57% | 49% | 38% | 75% | 100% | 91% | 78% | 77% |
| COc1cc2c(Nc3ccc(NC(=O)c4ccccc4)cc3)ncnc2cc1OCCCN1CCOCC1 | 32% | 24% | 45% | 36% | 41% | 68% | 17% | 1.9% | 0% | 43% | 100% | 0.5% | 42% | 19% | 6% | 98% | 6.2% | 4% | 45% |
| O=C(Nc1cccc(Nc2ncc(Br)c(NCCc3cnc[nH]3)n2)c1)N1CCCC1 | 0.5% | 62% | 0% | 62% | 63% | 81% | 46% | 2.3% | 0.05% | 0.7% | 100% | 51% | 0.15% | 94% | 0% | 100% | 75% | 0.1% | 0.15% |
